Assay results as given in PMC7754455 (Journal of Clinical Pharmacology, 2020).

Key:
[1] = Simcyp PBPK model parameter
[2] = Blood and plasma binding and permeability PBPK input parameters; conditions: PBPK model parameter, fixed to observed value
[3] = Clinical DDI study part 2: plasma PK of molibresib alone and with rifampicin; conditions: for AUC0‐∞ / Cmax / t1/2 / tmax: part 2 n = 14; for AUC0‐∞ / Cmax / t1/2: geometric mean (CVb%); for tmax: median (range)
[4] = Clinical DDI study part 1: plasma PK of molibresib alone and with itraconazole; conditions: with itraconazole vs alone, dose-normalized
[5] = human urine; ref study BET115521; cited from earlier work
[6] = preclinical findings; cited from earlier work
[7] = Safety and tolerability in the DDI study; conditions: one subject, part 1, appeared on day 6
[8] = with rifampicin vs alone, part 2

Q: For `COc1ccc2c(c1)C(c1ccc(Cl)cc1)=N[C@@H](CC(N)=O)c1nnc(C)n1-2` [GSK3529246], which Compound type [1] is on record?
A: Monoprotic base

Q: And the “Log P” value [1]?
A: 1.6

Q: And the pKb [1]?
A: 7.36

Q: What about the “Blood:plasma ratio” value [2] of the same compound?
A: 0.9

Q: What about the Fu plasma ([2]; fraction unbound) of the same compound?
A: 0.2

Q: And the “increase in Cmax with rifampicin” value ([3]; part 2)?
A: 2 fold

Q: What about the “AUC0‐∞” value ([3]; molibresib 10 mg alone) of the same compound?
A: 622 (26) ng·h/mL

Q: What about the Cmax ([3]; molibresib 10 mg alone) of the same compound?
A: 49.0 (24) ng/mL

Q: What about the t1/2 ([3]; molibresib 10 mg alone) of the same compound?
A: 10.0 (22) h

Q: What about the tmax ([3]; molibresib 10 mg alone) of the same compound?
A: 2.0 (1.0‐4.1) h

Q: What about the “AUC0‐∞” value ([3]; molibresib 20 mg + rifampicin) of the same compound?
A: 1140 (26) ng·h/mL

Q: And the Cmax ([3]; molibresib 20 mg + rifampicin)?
A: 200 (24) ng/mL

Q: And the t1/2 ([3]; molibresib 20 mg + rifampicin)?
A: 10.0 (24) h

Q: What about the tmax ([3]; molibresib 20 mg + rifampicin) of the same compound?
A: 1.0 (0.53‐1.5) h

Q: And the “AUC0‐∞ Geometric Mean Ratio, Dosed Normalized (90%CI)” value [3, 8]?
A: 0.917 (0.850‐0.989)

Q: And the “Cmax Geometric Mean Ratio, Dosed Normalized (90%CI)” value [3, 8]?
A: 2.04 (1.78‐2.32)

Q: What about the “AUC Observed Geometric Mean Ratio (90%CI)” value ([4]; AUC 0 to infinity) of the same compound?
A: 0.29 (0.26‐0.32)

Q: And the “Cmax Observed Geometric Mean Ratio (90%CI)” value [4]?
A: 0.13 (0.11‐0.14)

Q: What does the source list for `CCNC(=O)C[C@@H]1N=C(c2ccc(Cl)cc2)c2cc(OC)ccc2-n2c(C)nnc21` [Molibresib]?
A: urinary excretion of unchanged drug [5]: approximately 9.5 % of the total dose administered; preclinical adverse effects on male reproductive organs [6]: adverse effects on the testes including sperm retention and disorganized spermatogenesis

Q: Which “adverse event considered related by the investigator” value [7] does the source give for `CCC(C)n1ncn(-c2ccc(N3CCN(c4ccc(OCC5COC(Cn6cncn6)(c6ccc(Cl)cc6Cl)O5)cc4)CC3)cc2)c1=O` (stereo not drawn) [itraconazole] here?
A: mild elevations in liver enzymes
